Values joined by “and” are separate entries in the source; they are usually repeats but may differ in a detail not shown here. Equal entries are not always repeated. “Also recorded” adds a separate entry of the source. Where two headings read alike, the source gives them in different places.
Legend:
DU 145 (prostate cancer) = experiment: Cytocidal action/growth inhibition, DU 145; assay type: cell-based; details: Homo sapiens
Experimental: Seven human cancer cell lines were obtained from the American Tissue Culture Collection (Rockville, Md.) and maintained in the recommended growth media. Cells were seeded into wells (2 cm^2) at a density of 2×10^4 cells/cm^2. Various concentrations of Compounds 1-13 were added to the media at the time of seeding.
The cultures were incubated for 72 hours at 37° C. (5% CO2 atmosphere). Following incubation, cells were detached with trypsin and counted in a hemocytometer.
I100 designates the concentration at which no viable cells remained; I50 the concentration at which 50% viable cells remained, as compared to a control.
E-ras 20 cells were cultured as reported, Bauer et al., 1996, "Modification of growth related enzymatic pathways and apparent loss of tumorigenicity of a ras-transformed bovine endothelial cell line by treatment with 5-iodo-6-amino-1,2-benzopyrone (INH2 BP)" Intl. J. Oncol. 8:239-252; HT-144 (melanoma), DU-145 (prostatic cancer), HeLa (cervical cancer), HL 60 (promyelocytic leukemia), MDA-MB-231 (mammary cancer), SK-Br-3 (mammary cancer), T47D (ductal mammary cancer), A559 (lung cancer) were obtained from American Type Culture Collection (Rockville, Md.) and cultured in prescribed media. The effect of DIME was tested in cultures with a starting cell density of 2×10^4 cells per cm^2 and comparison of the effect of DIME on cell growth (intact cells identified by Trypan blue exclusion) was assayed by direct cell counting after trypsinization in a hemocytometer 72 hours after drug addition.
For DIME-exposure experiments cells were seeded into 2 cm^2 wells at a density of 2×10^4 cells/cm^2. DIME at various concentrations was added to the medium at the time of seeding. The cell cultures were then incubated for 3 days (37° C. in 5% at CO2 atmosphere).

In vivo toxicity = experiment: In vivo toxicity; parameters: species or system mouse
Experimental: Ten nude mice were administered a daily oral dose of ^14 C-labeled DIME (Compound 1) (1.0 g/kg, 0.1 mL in corn oil) for a period of 12-15 days.

[1] = Serum half-life and bioavailability of 14C-DIME; assay type: in vivo, mouse
Experimental: Aliquots (50 μL) of blood were assayed in a liquid scintillation counter and data expressed as microgram-equivalents per mL. The blood level data were analyzed by the RSTRIP method (Micromath, Salt Lake City, Utah).

MDA-MB-231 cells = experiment: Flow cytometry / M phase block; assay type: cell-based, human
Experimental: The MDA-MB-231 cell line was obtained from ATCC (Rockville, Md., USA) and cells were cultured in T-75 flasks at 37° C. in Minimum Essential Medium-alpha, supplemented with 10% FCS. In controls, not receiving DIME, 0.1 μg/ml colcemid was added to cultures for 4 hrs prior to the collection of metaphase-blocked cells and preparation of cell spreads. […] Cells (10^7) were isolated from T-75 trypsinization for 5 min with 0.025% trypsin, and sedimented by centrifugation, resuspended and kept in 10 ml of 75 mM KC1 at 37° C. for 10 min, resedimented, and fixed in 10 ml methanol-acetic acid, with four successive changes of methanol-acetic acid. An aliquot of the final cell suspension (100 μl) was dropped on ethanol-cleaned slides and air-dried.
Cells exposed to different treatments were grown to confluence, trypsinized, and washed with phosphate buffered saline (PBS). For nuclear analysis, cells were fixed in Vindelov Citrate cell buffer: sucrose 250 mM, trisodium citrate. 2H20 40 mM, DMSO 50 ml in 1000 ml solution, pH 7.6. Normal human lymphocytes obtained from blood were used as controls. Each cell sample and control was counted with a hemacytometer and the cell concentration was adjusted to 2×10^6 cells/ml. Two million cells from each cell line in a total volume of 2 ml were washed twice with fresh PBS, treated with 200 μg/ml RNAase at 37° C. for 30 min, and stained with 10 μg/ml propidium iodide for 45 min. Flow cytometric analysis was performed on a FACScan benchtop flow cytometer (Becton-Dickinson, San Jose, Calif., USA) equipped with an air-cooled argon laser tuned to 488 nm. Twenty thousand events were collected as six parameter list mode data for analysis and archival storage. Two light scatter parameters (forward and side), propidium iodide fluorescence measured at 575/26 nm and above 620 nm, and doublet discrimination by fluorescence pulse width and area were acquired at 1024 data channel resolution. Acquisition threshold was set on propidium iodide positive events above channel 100. Gating to exclude small debris, large clumps and cell doublets was done post acquisition.

DIME-esterase = experiment: Esterase cleavage of DIME in tissue homogenates; assay type: in vitro ADME; details: mouse tissue homogenates
Experimental: (a) mouse tissue homogenate (brain, kidney, liver lung) consisting of 0.2 g of tissue in 1.0 ml. of homogenization buffer (50 mM Tris (pH 7.4), 400 mM NaCl, 10 mM MgCl2, 1 mM EDTA, 0.5% NP-40, 0.5 mM PMSF) each were combined with 1.0 ml of MES buffer (100 mM ph 6.5) containing 20 μM [^14 C]-DIME (10.55 mCi/mmol), and the mixtures were incubated at 37° C. for 4 hours. Then to each tube was added sequentially ethyl acetate (1.5 ml), ammonium sulfate (900 mg) and 60% perchloric acid (160 μl), with vortexing after each addition. After standing for 10 minutes, phase separation was enhanced by benchtop centrifugation. The upper (ethyl acetate) layer was drawn off, and the lower aqueous and interphase material was extracted with a second portion of ethyl acetate (1.5 ml). The ethyl acetate extracts (combined) contained more than 90% of the total cpm present in the original incubate (ca. 4×10^5 cpm). The extracts were evaporated to dryness using a stream of N^2, the respective residues taken up in ethyl acetate (100 μl) and aliquots (10 μl) spotted on analytical silica-gel TLC plates (Whatman PE SIL G/UV flexible plates 250 μm thickness, 10 cm×20 cm) and developed with 3:1:0.8 v:v:v n-hexane/ethyl acetate/ethanol. Analyte bands, including [^14 C]-DIME as reference standard, were visualized by autoradiography. […]
radioactivity of the [^14 C]-DIME was 20,470 cpm/nmol.

## COC(=O)c1cc(I)c(Oc2ccc(OC)cc2)c(I)c1 [Compound 1, Methyl 3,5-diiodo-4-(4'-methoxyphenoxy)benzoate]
DU 145 (prostate cancer); DU-145, 72 h, day 3, Table 11, read-out: I50 (day 3)
  IC50: 500 nM
DU 145 (prostate cancer); DU-145, 72 h, Table 4, read-out: I50
  IC50: 500 nM
DU 145 (prostate cancer); DU-145, 72 h, Table 4, read-out: I100 (no viable cells remained)
  IC100: 3.5 µM
In vivo toxicity; 1.0 g/kg daily oral, 12-15 days, nude mice, listed as DIME
  ill effects: No ill effects were observed; also recorded: produced no ill effects
In vivo toxicity; in vivo
  macroscopically observed toxicity in vivo: no macroscopically observed toxicity in vivo
[1]; i.v., 24.5 mg/kg
  i.v. serum half-life (t1/2): 2 to 2.5 h
[1]; oral 126 mg/kg vs i.v. 24.5 mg/kg, listed as DIME, 126 mg/kg
  oral bioavailability: 83% and 87%
[1]; serum
  half-life (t1/2): 2 to 2.5 h
MDA-MB-231 cells; 18 hrs of drug exposure
  M phase block (nuclei with G2 content of DNA): nuclei with a G2 content of DNA had accumulated, indicating M phase block
MDA-MB-231 cells; colcemid 0.1 μg/ml, 4 hrs
  cell cycle block in M phase, comparison of DIME and colcemid: indistinguishable with respect to the cell cycle block in M phase
DIME-esterase
  DIME-esterase activity: highest rate of "DIME-esterase" activity occurred in brain homogenates

From US6017958A, “Method of treating malignant tumors with thyroxine analogues having no significant hormonal activity” (Octamer, Inc., priority 1997, dated 2000)
